Reference: PubChem BioAssay (NCI)
Values joined by “and” are separate entries in the source; they are usually repeats but may differ in a detail not shown here. Identical values can stand only once.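 A five-concentration, 48-hour dose response in 96-well plates underlies each endpoint, interpolated linearly between surrounding concentrations. GI50: concentration for 50% inhibition of growth. The concentration for full growth arrest is given as TGI.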

Legend:
Test in all cases: inhibition of tumour cell growth, NCI panel, 48 h
[1] = test system: EKVX NSCLC
[2] = test system: PC-3 prostate
[3] = test system: SK-MEL-5 melanoma
[4] = test system: SNB-19 CNS
[5] = test system: UACC-62 melanoma
[6] = test system: HT29 colon
[7] = test system: 786-0 renal
[8] = test system: SF-268 CNS
[9] = test system: OVCAR-5 ovarian
[10] = test system: NCI-H522 lung

| Compound | GI50 [1] | TGI [1] | GI50 [2] | TGI [2] | GI50 [3] | TGI [3] | GI50 [4] | TGI [4] | GI50 [5] | TGI [5] | GI50 [6] | TGI [6] | GI50 [7] | TGI [7] | GI50 [8] | TGI [8] | GI50 [9] | TGI [9] | GI50 [10] | TGI [10] |
| --- | --- | --- | --- | --- | --- | --- | --- | --- | --- | --- | --- | --- | --- | --- | --- | --- | --- | --- | --- | --- |
| CN1CCN(c2ccc(C(=O)Nc3n[nH]c4ccc(Cc5cc(F)cc(F)c5)cc34)c(NC3CCOCC3)c2)CC1 | 3.07 µM | > 10 µM | 2.83 µM and 1.38 µM | > 10 µM and 2.99 µM | 1.62 µM and 1.56 µM | 3.01 µM and 2.98 µM | 4.24 µM and 1.79 µM | > 10 µM and 3.53 µM | 1.52 µM and 1.6 µM | 3.03 µM and 3.1 µM | 0.971 µM and 1.06 µM | 3.38 µM and 2.46 µM | 1.41 µM and 1.31 µM | 2.99 µM and 2.62 µM | 2.25 µM and 1.45 µM | > 10 µM and 2.87 µM | 1.85 µM and 1.31 µM | > 10 µM and 2.73 µM | 1.6 µM and 1.7 µM | 3.36 µM and 3.24 µM |
| O=S(=O)(Nc1ncccn1)c1ccc(N=Nc2ccc(O)c3ncccc23)cc1 |  |  | 15.6 µM | > 100 µM | 6.85 µM | 20.7 µM | 6.83 µM | > 100 µM | 3.4 µM | 14 µM | 22.6 µM | 78 µM | 7.17 µM | 58.1 µM | 9.14 µM | 87 µM | 29.7 µM | 89.2 µM | 5 µM | 25.7 µM |
| C(=Nc1ccccc1)C1CCCC[N-]1.C(=Nc1ccccc1)C1CCCC[N-]1.[Cu+2].[O-][Cl+3]([O-])([O-])O (stereo unspecified) | 19 µM | 58.1 µM | 12.3 µM | 34.2 µM | 8.64 µM | 27.7 µM | 9.94 µM | 38.4 µM | 5 µM | 22.8 µM | 15.5 µM | 30.8 µM | 13.3 µM | > 58.7 µM | 26.9 µM | > 89.6 µM | 14.8 µM | 31.6 µM | 13.3 µM | 52.1 µM |
| CO[C@H](C(=O)[C@@H](O)[C@@H](C)O)[C@@H]1Cc2cc3cc(O[C@H]4C[C@@H](O[C@H]5C[C@@H](O)[C@H](O)C(C)O5)[C@H](O)C(C)O4)c(C)c(O)c3c(O)c2C(=O)[C@H]1O[C@H]1C[C@@H](O[C@H]2C[C@@H](O[C@H]3C[C@@H](OC)[C@H](O)C(C)O3)[C@@H](O)C(C)O2)C(O)(O)C(C)O1 (stereo partly specified) | 0.318 µM | > 25 µM | 0.396 µM | > 25 µM | 0.0208 µM | 0.467 µM | 0.0971 µM | > 25 µM | 0.00601 µM | 0.0945 µM | 0.212 µM | 5.01 µM | 0.164 µM | > 25 µM | 0.128 µM | > 25 µM | 0.376 µM | > 25 µM | 0.0168 µM | 0.304 µM |
| CC1=NN(C(=O)c2ccccc2O)C(=O)/C1=C/c1ccc([N+](=O)[O-])cc1 | 2.68 µM | > 100 µM | 0.371 µM | > 100 µM | 2.21 µM | 51.5 µM | 0.464 µM | > 100 µM |  | 2.16 µM | 4.22 µM | > 100 µM | 0.774 µM | > 100 µM | 0.444 µM | > 100 µM | 2.62 µM | > 100 µM | 2.03 µM | 7.06 µM and 12.9 µM |
| COc1cc(-c2nn3c(/C=C4/C(=O)Nc5ccccc54)c(-c4ccc(C)cc4)nc3s2)cc(OC)c1OC |  |  | 81.1 µM | > 100 µM |  |  | 7.89 µM | 34.2 µM | 5.47 µM | > 100 µM |  |  | 5.8 µM | 21.4 µM | 3.62 µM | > 100 µM | > 100 µM | > 100 µM | 10.2 µM | 37.5 µM |
